Values joined by “and” are separate entries in the source; they are usually repeats but may differ in a detail not shown here. Equal entries are not always repeated.
What was measured:
Type in all cases: cell-based, Human
[1] = test system: macrophages; experiment: Macrophage Viability Assay (CellTiter-Glo); settings: for Macrophage viability (CellTiter-Glo Luminescent Cell Viability Assay): 16 hours, three replicate lines
Description: Then, the monocytes isolated by MACS were subsequently cultured in fresh complete medium supplemented with recombinant human granulocyte-macrophage colony-stimulating factor GM-CSF (50 ng/ml) and human recombinant IL-4 (35 ng/ml) to activate differentiated macrophages. After 6 days of culture (on day 7), cells were harvested, pooled together and counted for next use.
The cells from Example 2 were plated into a 96-well flat bottom plate at a density of 0.05×10^6 cells/well. After 2 hours of incubation, the macrophages were well attached to the plate. Then selected small molecule therapeutic agents were added to the well and cocultured for 16 hours. On day 8, macrophage viability was assessed by CellTiter-Glo® Luminescent Cell Viability Assay, according to the manufacture's instruction.

[2] = test system: Calreticulin; experiment: FACS analysis of expression level of calreticulin on tumor cell surface; settings: Toledo cells, 12 hours
Description: (§1) For FACS analysis, on the day of analysis (day 1), Toledo cells were seeded into 96 well plate and cultured at a density of 0.2×10^6 cells/well. Then the cells were treated with the selected small molecule therapeutic agents for 12 hours.
(§2) On day 2, cells were harvested, washed twice and then re-suspended in 100 uL FACS buffer subject to FACS analysis. For detection of the expression of calreticulin and CD47, cells were incubated with anti-calreticulin antibody and commercially available anti-CD47 antibody (BD Biosciences, Catalog number: 561249) in dark at 4° C. for 30 mins.
(§3) Then, the cells were subject to FACS analysis. Data was acquired and analyzed.

[3] = test system: CD47; experiment: FACS analysis of expression level of CD47 on tumor cell surface; settings: Toledo cells, 12 hours
Description: as §1, §2, §3

Row | Compound | Macrophage viability (CellTiter-Glo Luminescent Cell Viability Assay) ([1]; Cpd 0.002 uM) | Macrophage viability (CellTiter-Glo Luminescent Cell Viability Assay) ([1]; Cpd 0.008 uM) | Macrophage viability (CellTiter-Glo Luminescent Cell Viability Assay) ([1]; Cpd 0.04 uM) | Macrophage viability (CellTiter-Glo Luminescent Cell Viability Assay) ([1]; Cpd 0.2 uM) | Macrophage viability (CellTiter-Glo Luminescent Cell Viability Assay) ([1]; Cpd 1 uM) | Macrophage viability (CellTiter-Glo Luminescent Cell Viability Assay) ([1]; Cpd 5 uM) | Macrophage viability (CellTiter-Glo Luminescent Cell Viability Assay) ([1]; Cpd 25 uM) | Macrophage viability (CellTiter-Glo Luminescent Cell Viability Assay) ([1]; Cpd 50 uM) | toxicity to macrophages ([1]; dose of 0.1-50 μM) | Mean Fluorescence Intensity (MFI) Calreticulin ([2]; 0.008 uM) | Mean Fluorescence Intensity (MFI) Calreticulin ([2]; 0.04 uM) | Mean Fluorescence Intensity (MFI) Calreticulin ([2]; 0.2 uM) | Mean Fluorescence Intensity (MFI) Calreticulin ([2]; 1 uM) | Mean Fluorescence Intensity (MFI) Calreticulin ([2]; 5 uM) | Mean Fluorescence Intensity (MFI) CD47 ([3]; 0.008 uM) | Mean Fluorescence Intensity (MFI) CD47 ([3]; 0.04 uM) | Mean Fluorescence Intensity (MFI) CD47 ([3]; 0.2 uM) | Mean Fluorescence Intensity (MFI) CD47 ([3]; 1 uM) | Mean Fluorescence Intensity (MFI) CD47 ([3]; 5 uM) | further results
1 | C[C@H](Nc1ncnc2nc[nH]c12)c1cc2cccc(Cl)c2c(=O)n1-c1ccccc1 [Duvelisib] | 5688 and 5876 and 6184 | 5484 and 5444 and 5664 | 5228 and 5348 and 5760 | 5028 and 4984 and 5264 | 4592 and 4776 and 4880 | 4464 and 4584 and 4404 | 4176 and 4276 and 4156 | 3972 and 3992 and 3860 | obvious toxicity | 71.4 | 71.2 | 71.4 | 75.7 | 75.9 | 8368 | 8376 | 8471 | 8432 | 8482 | 
2 | C=CC(=O)N1CCC[C@@H](n2nc(-c3ccc(Oc4ccccc4)cc3)c3c(N)ncnc32)C1 [Ibrutinib] | 4948 and 4988 and 5520 | 4880 and 5316 and 5780 | 4688 and 5488 and 5780 | 4932 and 5736 and 6152 | 5056 and 5624 and 6224 | 4864 and 5828 and 6004 | 4680 and 5100 and 5572 | 3732 and 4296 and 4508 |  | 70.6 | 73.1 | 74.5 | 69.9 | 79 | 8453 | 8490 | 8415 | 8345 | 8345 | toxicity to macrophages ([1]; dose as high as 50 μM): showed toxicity; toxicity to macrophages ([1]; dose lower than 10 μM): little toxic
3 | CC[C@H](Nc1ncnc2[nH]cnc12)c1nc2cccc(F)c2c(=O)n1-c1ccccc1 [Idelalisib] | 5888 and 5908 and 5980 | 6164 and 6056 and 5948 | 6144 and 6304 and 5916 | 6040 and 6048 and 6220 | 5376 and 5640 and 5744 | 5092 and 5220 and 5060 | 4508 and 4884 and 4908 | 4404 and 4648 and 4964 | obvious toxicity | 69.4 | 72.9 | 70.6 | 77.6 | 75.8 | 8342 | 8538 | 8246 | 8465 | 8263 | 

Source: patent US20230174649A1, “PHARMACEUTICAL COMPOSITIONS CONTAINING ANTI-CD47 ANTIBODIES” (I-MAB BIOPHARMA US LIMITED, priority 2020, published 2023)
